From ChEMBL document CHEMBL1201862, “PubChem BioAssay data set” (2004)
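Where inhibition never reached the appropriate level, the endpoint shown equals the highest concentration tested. Otherwise, values were interpolated linearly from a five-concentration, 48-hour dose response in 96-well plates. GI50 is the concentration that inhibits growth by half.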 Calls of active or inactive are those of the source. Cut-off read from the data, not from the text of the source: active = GI50 up to about 1.1 µM and inactive = higher.

What was measured:
Test in all cases: NCI anticancer screen, dose series, 48 h
ACHN = tested on: ACHN
EKVX = tested on: EKVX
HCC 2998 = tested on: HCC 2998
HCT-15 = tested on: HCT-15
HOP-62 = tested on: HOP-62
MDA-MB-435 = tested on: MDA-MB-435
MDA-N = tested on: MDA-N
NCI-H226 = tested on: NCI-H226
NCI-H23 = tested on: NCI-H23
OVCAR-3 = tested on: OVCAR-3
OVCAR-4 = tested on: OVCAR-4
OVCAR-5 = tested on: OVCAR-5
SF-268 = tested on: SF-268
SF-539 = tested on: SF-539
SN12C = tested on: SN12C
SNB-19 = tested on: SNB-19
SNB-75 = tested on: SNB-75
UACC-257 = tested on: UACC-257
CAKI-1 = tested on: CAKI-1
PC-3 = tested on: PC-3

Compound	GI50 (ACHN)	GI50 (EKVX)	GI50 (HCC 2998)	GI50 (HCT-15)	GI50 (HOP-62)	GI50 (MDA-MB-435)	GI50 (MDA-N)	GI50 (NCI-H226)	GI50 (NCI-H23)	GI50 (OVCAR-3)	GI50 (OVCAR-4)	GI50 (OVCAR-5)	GI50 (SF-268)	GI50 (SF-539)	GI50 (SN12C)	GI50 (SNB-19)	GI50 (SNB-75)	GI50 (UACC-257)	GI50 (CAKI-1)	GI50 (PC-3)
CC(=O)Nc1ccc(C(=O)NN2C(=O)CSC2c2ccc([N+](=O)[O-])cc2)cc1 (stereo not given)	> 100 µM (inactive)	> 100 µM (inactive)	> 100 µM (inactive)	> 100 µM	> 100 µM (inactive)	> 100 µM (inactive)	> 100 µM (inactive)	> 100 µM (inactive)	> 100 µM (inactive)	> 100 µM (inactive)	> 100 µM (inactive)	> 100 µM (inactive)	79.8 µM (inactive)	> 100 µM (inactive)	> 100 µM (inactive)	> 100 µM (inactive)	> 100 µM (inactive)	> 100 µM (inactive)	–	–
CC[C@@H](O)C[C@H]1CCC[C@@]2(C[C@@H]3OC(=O)/C=C/[C@@](C)(O)[C@@H](O)[C@H](C)[C@@H](O)[C@H](OC4CCC(N(C)C)C(C)O4)[C@@H](O)[C@](C)(O)CCCCC/C=C/[C@@H]4CC(C)(C)O[C@@]4(O)C[C@H](O2)[C@H]3C)O1 (stereo not given in full)	< 0.01 µM (active)	< 0.01 µM (active)	2.4 µM (inactive)	11.5 µM	13.4 µM (inactive)	0.927 µM (active)	2.96 µM (inactive)	–	< 0.01 µM (active)	12.9 µM (inactive)	5.2 µM (inactive)	14.8 µM (inactive)	15.7 µM (inactive)	10.9 µM (inactive)	16.4 µM (inactive)	–	–	< 0.01 µM (active)	3.61 µM (inactive)	–
C=C(CCC/C(C)=C/C=C/[C@]1(C)CCCc2ccoc21)CC(=O)O	> 100 µM (inactive)	> 100 µM (inactive)	> 100 µM (inactive)	98.9 µM	> 100 µM (inactive)	> 100 µM (inactive)	–	> 100 µM (inactive)	> 100 µM (inactive)	54.8 µM (inactive)	> 100 µM (inactive)	> 100 µM (inactive)	> 100 µM (inactive)	> 100 µM (inactive)	> 100 µM (inactive)	> 100 µM (inactive)	> 100 µM (inactive)	> 100 µM (inactive)	> 100 µM (inactive)	90.6 µM (inactive)
COC(=O)c1c(C)cccc1/C=C1\Cc2ccc(C)c(C)c2C1=O	> 100 µM (inactive)	> 100 µM (inactive)	> 100 µM (inactive)	> 100 µM	41.7 µM (inactive)	–	> 100 µM (inactive)	> 100 µM (inactive)	> 100 µM (inactive)	> 100 µM (inactive)	22.3 µM (inactive)	> 100 µM (inactive)	67.5 µM (inactive)	> 100 µM (inactive)	> 100 µM (inactive)	52.5 µM (inactive)	40.6 µM (inactive)	> 100 µM (inactive)	> 100 µM (inactive)	> 100 µM (inactive)
COc1ccc(C2SC(=N)Nc3c2c(C)nn3C(=O)c2ccncc2)cc1 (stereo not given)	> 100 µM (inactive)	> 100 µM (inactive)	–	> 100 µM	> 100 µM (inactive)	70.6 µM (inactive)	> 100 µM (inactive)	> 100 µM (inactive)	> 100 µM (inactive)	40.4 µM (inactive)	43.3 µM (inactive)	> 100 µM (inactive)	> 100 µM (inactive)	> 100 µM (inactive)	> 100 µM (inactive)	> 100 µM (inactive)	> 100 µM (inactive)	> 100 µM (inactive)	–	> 100 µM (inactive)
O=C1CCNC/C1=C\c1ccccc1	22.9 µM (inactive)	> 100 µM (inactive)	20.1 µM (inactive)	17.1 µM	29.1 µM (inactive)	–	–	24 µM (inactive)	18.2 µM (inactive)	22.9 µM (inactive)	15.9 µM (inactive)	24.7 µM (inactive)	19.6 µM (inactive)	17.4 µM (inactive)	34.5 µM (inactive)	19.4 µM (inactive)	37.8 µM (inactive)	25.8 µM (inactive)	44.8 µM (inactive)	–
CCOC(=O)N1C=CC(=C2C(=C3C=CN(C(=O)OCC)C=C3)C(=C3C=CN(C(=O)OCC)C=C3)C2=C2C=CN(C(=O)OCC)C=C2)C=C1	2.98 µM (inactive)	48.5 µM (inactive)	–	12.4 µM	25.9 µM (inactive)	22.2 µM (inactive)	–	22.3 µM (inactive)	26.2 µM (inactive)	22.4 µM (inactive)	38 µM (inactive)	36.8 µM (inactive)	31.5 µM (inactive)	25 µM (inactive)	20.2 µM (inactive)	64.6 µM (inactive)	47.1 µM (inactive)	34.1 µM (inactive)	16.7 µM (inactive)	17.1 µM (inactive)
COc1ccccc1/N=N/c1c(O)c(S(=O)(=O)O)cc2cc(S(=O)(=O)O)ccc12	> 100 µM (inactive)	> 100 µM (inactive)	–	> 100 µM	> 100 µM (inactive)	> 100 µM (inactive)	> 100 µM (inactive)	> 100 µM (inactive)	> 100 µM (inactive)	> 100 µM (inactive)	> 100 µM (inactive)	> 100 µM (inactive)	> 100 µM (inactive)	–	> 100 µM (inactive)	> 100 µM (inactive)	> 100 µM (inactive)	> 100 µM (inactive)	> 100 µM (inactive)	> 100 µM (inactive)
Cc1ccc(C)c(NC(=O)C(Cc2c[nH]c3ccccc23)NC(=O)OCc2ccccc2)c1 (stereo not given)	22.9 µM (inactive)	14.5 µM (inactive)	–	20.9 µM	48.8 µM (inactive)	21.9 µM (inactive)	29.3 µM (inactive)	–	21.3 µM (inactive)	29.7 µM (inactive)	5.12 µM (inactive)	25.6 µM (inactive)	26.4 µM (inactive)	8.53 µM (inactive)	24.7 µM (inactive)	13.8 µM (inactive)	11.3 µM (inactive)	10.6 µM (inactive)	16.4 µM (inactive)	11.5 µM (inactive)
CC(C)OP(=O)(OC(C)C)/C(Cl)=N/Nc1ccc([N+](=O)[O-])cc1	> 100 µM (inactive)	> 100 µM (inactive)	> 100 µM (inactive)	> 100 µM	> 100 µM (inactive)	–	–	0.778 µM (active)	> 100 µM (inactive)	> 100 µM (inactive)	> 100 µM (inactive)	> 100 µM (inactive)	> 100 µM (inactive)	> 100 µM (inactive)	> 100 µM (inactive)	> 100 µM (inactive)	> 100 µM (inactive)	> 100 µM (inactive)	97.3 µM (inactive)	–
CCOC(=O)C(=O)Nc1nc2ccc(OC)cc2s1	> 100 µM (inactive)	> 100 µM (inactive)	> 100 µM (inactive)	> 100 µM	> 100 µM (inactive)	–	–	> 100 µM (inactive)	> 100 µM (inactive)	> 100 µM (inactive)	> 100 µM (inactive)	> 100 µM (inactive)	> 100 µM (inactive)	> 100 µM (inactive)	> 100 µM (inactive)	> 100 µM (inactive)	> 100 µM (inactive)	> 100 µM (inactive)	> 100 µM (inactive)	–
COc1ccc(/C=N/n2c(=O)[nH]c3ccccc3c2=O)cc1	> 100 µM (inactive)	59.8 µM (inactive)	–	> 100 µM	> 100 µM (inactive)	> 100 µM (inactive)	> 100 µM (inactive)	> 100 µM (inactive)	> 100 µM (inactive)	> 100 µM (inactive)	–	> 100 µM (inactive)	> 100 µM (inactive)	> 100 µM (inactive)	> 100 µM (inactive)	> 100 µM (inactive)	50.8 µM (inactive)	> 100 µM (inactive)	> 100 µM (inactive)	> 100 µM (inactive)
OC1CCC(C2C3CCCCC3C3CCCCC3C2C2CCC(O)CC2)CC1 (stereo not given)	2.98 µM (inactive)	9.89 µM (inactive)	–	2.49 µM	5.04 µM (inactive)	4.19 µM (inactive)	–	6 µM (inactive)	3.08 µM (inactive)	4.67 µM (inactive)	4.04 µM (inactive)	7.59 µM (inactive)	2.99 µM (inactive)	10.6 µM (inactive)	5.13 µM (inactive)	6.44 µM (inactive)	5.38 µM (inactive)	13.6 µM (inactive)	3.62 µM (inactive)	5.31 µM (inactive)
N#CCc1nc2c(s1)C(=O)c1ccccc1C2=O	14.1 µM (inactive)	14.4 µM (inactive)	19.9 µM (inactive)	16.3 µM	15 µM (inactive)	–	–	19.8 µM (inactive)	17.5 µM (inactive)	15.8 µM (inactive)	16.9 µM (inactive)	22.6 µM (inactive)	15.9 µM (inactive)	14.8 µM (inactive)	18.8 µM (inactive)	21.4 µM (inactive)	23.1 µM (inactive)	15.2 µM (inactive)	22.2 µM (inactive)	–
COc1cc([C@@H]2c3cc4c(cc3[C@@H](NC(=O)c3cccc(F)c3)C3COC(=O)[C@@H]32)OCO4)cc(OC)c1O (stereo not given in full)	0.125 µM (active)	2.1 µM (inactive)	2.66 µM (inactive)	1.45 µM	0.195 µM (active)	–	–	0.207 µM (active)	0.522 µM (active)	3.6 µM (inactive)	38.5 µM (inactive)	2.21 µM (inactive)	1.61 µM (inactive)	0.356 µM (active)	0.314 µM (active)	0.664 µM (active)	1.23 µM (inactive)	7.19 µM (inactive)	0.646 µM (active)	–
